{"source": "ChEMBL document CHEMBL2380224", "about": "“Fragment-based ligand design of novel potent inhibitors of tankyrases” (J Med Chem, 2013)", "key": {"[1]": {"target": "T1, Poly [ADP-ribose] polymerase tankyrase-2 (Homo sapiens, UniProt Q9H2K2)", "T1 sequence (Q9H2K2 whole entry)": "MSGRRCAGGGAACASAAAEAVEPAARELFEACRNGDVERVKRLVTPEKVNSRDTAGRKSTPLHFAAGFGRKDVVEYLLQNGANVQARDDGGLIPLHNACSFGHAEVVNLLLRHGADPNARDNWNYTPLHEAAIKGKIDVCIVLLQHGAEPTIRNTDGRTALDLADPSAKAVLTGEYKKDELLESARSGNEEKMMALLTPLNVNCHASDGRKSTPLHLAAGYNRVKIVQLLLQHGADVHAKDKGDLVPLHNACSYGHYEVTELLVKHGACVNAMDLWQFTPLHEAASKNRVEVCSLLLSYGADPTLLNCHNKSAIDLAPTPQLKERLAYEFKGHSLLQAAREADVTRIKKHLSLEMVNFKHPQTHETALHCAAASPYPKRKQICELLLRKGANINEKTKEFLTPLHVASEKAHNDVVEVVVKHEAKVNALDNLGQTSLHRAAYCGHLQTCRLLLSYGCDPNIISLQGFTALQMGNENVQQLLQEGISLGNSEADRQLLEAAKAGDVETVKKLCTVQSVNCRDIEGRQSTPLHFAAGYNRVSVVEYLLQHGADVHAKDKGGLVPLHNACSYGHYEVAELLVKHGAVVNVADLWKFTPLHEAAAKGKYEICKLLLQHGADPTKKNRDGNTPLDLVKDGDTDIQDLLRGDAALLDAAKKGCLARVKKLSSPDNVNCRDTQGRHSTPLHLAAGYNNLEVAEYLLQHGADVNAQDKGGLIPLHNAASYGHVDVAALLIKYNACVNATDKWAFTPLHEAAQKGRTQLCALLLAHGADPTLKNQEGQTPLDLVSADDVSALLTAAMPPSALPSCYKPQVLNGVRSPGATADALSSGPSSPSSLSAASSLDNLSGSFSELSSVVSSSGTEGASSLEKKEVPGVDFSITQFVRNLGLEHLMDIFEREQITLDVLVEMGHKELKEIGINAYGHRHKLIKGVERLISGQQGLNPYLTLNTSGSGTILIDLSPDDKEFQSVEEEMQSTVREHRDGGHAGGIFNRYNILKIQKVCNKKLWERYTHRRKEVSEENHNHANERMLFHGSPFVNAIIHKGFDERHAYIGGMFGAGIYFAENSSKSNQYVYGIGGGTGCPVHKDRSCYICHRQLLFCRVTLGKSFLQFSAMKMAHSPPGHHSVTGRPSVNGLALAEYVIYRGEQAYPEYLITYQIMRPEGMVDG", "test": "Inhibition of auto-PARsylation of GST-tagged TNKS2 PARP domain (947 to 1162) (unknown origin) expressed in Escherichia coli BL21(DE3) after 2 hrs by LC/MS analysis"}, "Homo sapiens": {"species": "Homo sapiens", "test": "Selectivity ratio of IC50 for PARP1 (unknown origin) to IC50 for TNKS2 PARP domain (947 to 1162) (unknown origin)"}}}
{"compound": "Cc1cc(=O)[nH]c2cc(-c3ccccc3F)ccc12", "values": [{"measurement": "IC50", "setting": "[1]", "result": 52, "unit": "nM"}, {"measurement": "Ratio IC50", "setting": "Homo sapiens", "result": "> 100"}]}
